Experimental data as given in patent publication US11547681B2, “N-acylethanolamide derivatives and uses thereof” (ELIEM THERAPEUTICS, INC., priority 2016, dated 2023).

Assays:
[1] = in vitro; conditions: both, human; for Concentration (μM) of analyte PEA, 0 min / Concentration (μM) of analyte PEA, 10 min / Concentration (μM) of analyte PEA, 20 min / Concentration (μM) of analyte PEA, 30 min / Concentration (μM) of analyte PEA, 60 min / % Remaining of Initial (n = 1), 0 min / % Remaining of Initial (n = 1), 10 min / % Remaining of Initial (n = 1), 20 min / % Remaining of Initial (n = 1), 30 min / % Remaining of Initial (n = 1), 60 min / Measured concentration of PEA (analyte) / % Remaining of Initial / Concentration of analyte I-9 / Concentration of analyte PEA / % Remaining of Initial (n = 1): 1 μM
Procedure: The reaction mixture, minus cofactors, was prepared as described below. The test article was added into the reaction mixture at a final concentration of 1 μM. […] An aliquot of the reaction mixture (without cofactor cocktail) was equilibrated in a shaking water bath at 37° C. for 3 minutes. The reaction was initiated by the addition of cofactor cocktail, and the mixture was incubated in a shaking water bath at 37° C. Aliquots (100 μL) were withdrawn at 0, 10, 20, 30, and 60 minutes. All samples were immediately combined with 400 uL of icecold 50/50 acetonitrile/H2O containing 0.1% formic acid and internal standard to terminate the reaction. The samples were then mixed and centrifuged to precipitate proteins. Calibration standards were prepared in matched matrix. All samples and standards were assayed by LC-MS/MS using electrospray ionization for both the dosed prodrug I-9 and the expected drug (PEA). Analytical conditions are outlined in Appendix 4-1. The test article concentration at each time point was compared to the test article concentration at time 0 to determine the percent remaining at each time point. Half-lives were calculated using GraphPad software, fitting to single-phase exponential decay equation.
(§1) Reaction mixture, minus cofactors, was prepared as described below. Test article was added into the reaction mixture at a final concentration of 1 μM. […] An aliquot of the reaction mixture (without cofactor cocktail) was equilibrated in a shaking water bath at 37° C. for 3 minutes. The reaction was initiated by the addition of cofactor cocktail, and the mixture was incubated in a shaking water bath at 37° C. Aliquots (100 μL) were withdrawn at 0, 10, 20, 30, and 60 minutes. Test article samples were immediately combined with 300 μL of ice-cold acetonitrile containing 1% formic acid. Control samples were immediately combined with 400 μL of ice-cold 50/50 acetonitrile (ACN)/dH2O containing 0.1% formic acid and internal standard to terminate the reaction. Samples were then mixed and centrifuged to precipitate proteins. Calibration standards were prepared in matched matrix. Samples and standards were assayed by LC-MS/MS using electrospray ionization for both the dosed prodrug and the expected drug (PEA). Analytical conditions are outlined in Appendix 8-1. Test article concentration at each time point was compared to test article concentration at time 0 to determine the percent remaining at each time point. Halflives were calculated using GraphPad software, fitting to a single-phase exponential decay equation.
as §1, with “for 5” for “for 3”, “minutes. Reaction” for “minutes. The reaction”, “and” for “and the”, “both” for “both the”, “Appendix 10-1.” for “Appendix 8-1.”
Reaction mixture, minus cofactors, was prepared as described below.

[2] = rat, in vivo
Procedure: PEA was also dosed intravenously at 1 mg/kg. Blood samples were collected up to 8 hours post-dose, and PEA and PEA-prodrug plasma concentrations were determined with a qualified LC-MS/MS method. Pharmacokinetic analysis was conducted by a non-compartmental model using Phoenix WinNonlin v.6.4 software.
The IV dosing solution was prepared fresh on the day of dosing at 0.5 mg/mL in a vehicle comprised of 10% solutol HS15, 10% n-methylpyrrolidone (NMP), 10% polyethylene glycol 400 (PEG400), and 70% water. For PO dosing, torpac capsules were loaded with an appropriate amount of PEA, PEA-prodrug, or normast powder. […] The prodrug dose in group 5 was the maximum amount of powder that would fit into a single capsule.
The pharmacokinetics of PEA and the PEA-prodrug were evaluated in fasted male Sprague-Dawley rats. Rats were housed one per cage. Each rat was fitted with a jugular vein cannula (JVC) for blood collection. Rats intended for IV dosing were fitted with an additional JVC for dosing. Each study group was dosing in triplicate. Rats were fasted for a minimum of twelve hours prior to dosing. Food was returned at four hours post dosing. Animals had free access to water throughout the study.
Blood samples (˜300 μL) were collected from the rats via a JVC and placed into chilled polypropylene tubes containing sodium heparin as an anticoagulant, and 30 μL of 0.5 M citric acid. Samples were maintained chilled throughout processing. Blood samples were centrifuged at 4° C. and 3,000 g for 5 minutes. Plasma (˜150 μL) was then transferred to a chilled, labeled polypropylene tube containing 15 μL of 10% formic acid, placed on dry ice, and stored in a freezer maintained at −60° C. to −80° C.
Pharmacokinetic parameters were determined with Phoenix WinNonlin (v6.4) software using a non-compartmental model. Maximum plasma concentrations (C0) after IV dosing were estimated by extrapolation of the first two time points back to t=0. […] Area under the time concentration curve (AUC) was calculated using the linear trapezoidal rule with calculation to the last quantifiable data point, and with extrapolation to infinity if applicable. […] Mean residence time, MRT, was calculated by dividing the area under the moment curve (AUMC) by the AUC. Clearance (CL) was calculated from dose/AUC. Steady-state volume of distribution (Vss) was calculated from CL*MRT (mean residence time). Bioavailability was determined by dividing the individual PO dose normalized AUClast values by the average IV AUClast value. Any samples below the limit of quantitation were treated as zero for pharmacokinetic data analysis.
Measured concentrations of PEA in plasma samples were corrected by subtracting the concentration of PEA measured in the pre-dose samples. […] Any corrected values that were negative are reported as not determined (ND).

[3] = Simulated intestinal fluid stability, SIF containing pancreatin; type: in vitro ADME; conditions: for % Remaining of Initial (n = 1): 1 μM (Example 14); for Measured Concentration of Drug: test article dosed at 1 μM (Example 14)
Procedure: (§2) Studies were carried out in simulated intestinal fluid containing pancreatin. Simulated intestinal fluid was prepared by dissolving 6.8 g of monobasic potassium phosphate in 1.0 L of water. Pancreatin was then added to the solution and the pH was adjusted to 6.8. A DMSO stock was first prepared for the test articles. Aliquots of the DMSO solution were dosed into 300 μL of matrix, which had been pre-warmed to 37° C., at a final test article concentration of 1 μM. An individual tube was dosed for each time point. At each time point (0, 15, 30, 60, and 120 minutes), 900 μL of ice-cold acetonitrile containing 1.0% formic acid was added to an individual tube. Starting time for each tube was staggered such that all timepoints would finish at the same time. After the conclusion of the experiment, tubes were mixed and then centrifuged at 3,000 rpm for 10 minutes. Calibration standards were prepared in matched matrix. […] Analytical conditions are outlined in Appendix 11-1.
as §2, with “prepared for test articles.” for “prepared for the test articles.”, “Aliquots of DMSO solution” for “Aliquots of the DMSO solution”, “individual tube. The starting time for” for “individual tube. Starting time for”, “that all time points would finish” for “that all timepoints would finish”, “in Appendix 14-1.” for “in Appendix 11-1.”

[4] = Summary of half life data (Table A), matrix not stated; type: in vitro ADME

Compound | Concentration (μM) of analyte PEA, 0 min ([1]; 0 min) [µM] | Concentration (μM) of analyte PEA, 10 min ([1]; 10 min) [µM] | Concentration (μM) of analyte PEA, 20 min ([1]; 20 min) [µM] | Concentration (μM) of analyte PEA, 30 min ([1]; 30 min) [µM] | Concentration (μM) of analyte PEA, 60 min ([1]; 60 min) [µM] | % Remaining of Initial (n = 1), 0 min ([1]; s9, 0 h) [%] | % Remaining of Initial (n = 1), 10 min ([1]; s9, 10 min) [%] | % Remaining of Initial (n = 1), 20 min ([1]; s9, 20 min) [%] | % Remaining of Initial (n = 1), 30 min ([1]; s9, 0.5 h) [%] | % Remaining of Initial (n = 1), 60 min ([1]; s9, 1 h) [%] | microsomal CLint at 1 μM ([1]; s9, CLint (mL/min/mg protein)) [µL/min/mg] | half-life at 1 μM ([1]; s9, Half-life (min)) [min] | Measured concentration of PEA (analyte) ([1]; 0 min) [µM] | Measured concentration of PEA (analyte) ([1]; 10 min) [µM] | Measured concentration of PEA (analyte) ([1]; 20 min) [µM] | Measured concentration of PEA (analyte) ([1]; 30 min) [µM] | microsomal CLint at 1 μM ([1]; s9, CLint) [µL/min/mg] | half-life at 1 μM ([1]; s9, Half-life) [min] | half-life [4] [min] | Bioavailability ([2]; male, Sprague-Dawley, po) [%] | also measured
CC/C=C\C/C=C\C/C=C\C/C=C\C/C=C\CCCC(=O)OCCNC(=O)CCCCCCCCCCCCCCC [Compound I-5] | 0 | 0.050 | 0.063 | 0.074 | 0.10 | 100 | 82 | 49 | 38 | 45 | 21.6 | 32 | – | – | – | – | – | – | – | – | PEA plasma concentration, 0 (pre-dose) ([2]; male, Sprague-Dawley): 3.66 ng/mL
CCCCCCCCCCCCCCCC(=O)NCCOC(=O)CCC(=O)OC(CO)CO [Compound I-8] | – | – | – | – | – | – | – | – | – | – | – | – | 0.021 | 0.32 | 0.39 | 0.38 | > 69.3 | < 10 | 6.2 | 17.3 | Measured concentration of PEA (analyte) ([1]; 60 min): 0.38 µM; % Remaining of Initial ([1]; s9, 0 h): 100%; % Remaining of Initial ([1]; s9, 10 min): 31%; % Remaining of Initial ([1]; s9, 20 min): 7.0%; % Remaining of Initial ([1]; s9, 0.5 h): 1.8%; % Remaining of Initial ([1]; s9, 1 h): <1.0%; % Remaining of Initial (n = 1) ([3]; 0 min): 100%; Measured Concentration of Drug ([3]; 0 min): 0.94 µM; % Remaining of Initial (n = 1) ([3]; 15 min): 17%; Measured Concentration of Drug ([3]; 15 min): 0.16 µM; % Remaining of Initial (n = 1) ([3]; 30 min): 6.8%; Measured Concentration of Drug ([3]; 30 min): 0.064 µM; % Remaining of Initial (n = 1) ([3]; 60 min): <1.3%; Measured Concentration of Drug ([3]; 60 min): 0 µM; % Remaining of Initial (n = 1) ([3]; 120 min): <1.3%; Measured Concentration of Drug ([3]; 120 min): 0 µM; half-life at 1 μM ([3]; simulated intestinal fluid with pancreatin, pH 6.8, 1 μM (Example 14)): 6.2 min; Dose-normalized AUC∞ of PEA ([2]; male, Sprague-Dawley, po): 11.2 kg·ng·h/mL/mg
CCCCCCCCCCCCCCCC(=O)NCCOC(=O)CCC(=O)OCC(O)CO (stereo not shown) [Compound I-9] | 0.048 | 0.18 | 0.23 | 0.22 | 0.18 | 100 | 28 | 5.7 | 1.2 | <1.0 | 131 | 5.3 | – | – | – | – | > 69.3 | < 10 | – | – | Concentration of analyte I-9 ([1]; 0 min): 610 nM; Concentration of analyte PEA ([1]; 0 min): 210 nM; Concentration of analyte I-9 ([1]; 10 min): 360 nM; Concentration of analyte PEA ([1]; 10 min): 500 nM; Concentration of analyte I-9 ([1]; 20 min): 99 nM; Concentration of analyte PEA ([1]; 20 min): 690 nM; Concentration of analyte I-9 ([1]; 30 min): 29 nM; Concentration of analyte PEA ([1]; 30 min): 650 nM; Concentration of analyte I-9 ([1]; 60 min): 4.3 nM; Concentration of analyte PEA ([1]; 60 min): 660 nM; % Remaining of Initial (n = 1) ([1]; s9, 0 h): 100%; % Remaining of Initial (n = 1) ([1]; s9, 10 min): 59%; % Remaining of Initial (n = 1) ([1]; s9, 20 min): 16%; % Remaining of Initial (n = 1) ([1]; s9, 1 h): <1.0%; microsomal CLint at 1 μM ([1]; s9, CLint, calculated value in parentheses): 75.3 µL/min/mg; half-life at 1 μM ([1]; s9, Half-Life, calculated value in parentheses): 9.2 min; PEA-prodrug in plasma samples ([2]; po): not detectable
CCCCCCCCCCCCCCCC(=O)NCCOC(=O)CCC(=O)OCC(COC(=O)CCC)OC(=O)CCC (stereo not shown) [Compound I-11] | 0.018 | 0.13 | 0.20 | 0.21 | 0.18 | 100 | 4.1 | 1.2 | <1.0 | <1.0 | – | – | – | – | – | – | – | – | < 1 | 4.5 | –
CCCCCCCCCCCCCCCC(=O)NCCOC(=O)CCC(=O)OC(COC(=O)CCC)COC(=O)CCC [Compound I-16] | – | – | – | – | – | – | – | – | – | – | – | – | 0 | 0.17 | 0.29 | 0.33 | > 69.3 | < 10 | < 1 | 12.1 | Measured concentration of PEA (analyte) ([1]; 60 min): 0.32 µM; % Remaining of Initial ([1]; s9, 0 h): 100%; % Remaining of Initial ([1]; s9, 10 min): 3.2%; % Remaining of Initial ([1]; s9, 20 min): <1.0%; % Remaining of Initial ([1]; s9, 0.5 h): <1.0%; % Remaining of Initial ([1]; s9, 1 h): <1.0%; % Remaining of Initial (n = 1) ([3]; 0 min): 100%; Measured Concentration of Drug ([3]; 0 min): 0.088 µM; % Remaining of Initial (n = 1) ([3]; 15 min): <4.5%; Measured Concentration of Drug ([3]; 15 min): 0 µM; % Remaining of Initial (n = 1) ([3]; 30 min): <4.5%; Measured Concentration of Drug ([3]; 30 min): 0 µM; % Remaining of Initial (n = 1) ([3]; 60 min): <4.5%; Measured Concentration of Drug ([3]; 60 min): 0 µM; % Remaining of Initial (n = 1) ([3]; 120 min): <4.5%; Measured Concentration of Drug ([3]; 120 min): 0 µM
